Like-named read-outs stand apart in the source and are kept apart here.
Experiments:
Type in all cases: biochemical
Wild-type cruzipain = Wild-type cruzipain (Trypanosoma cruzi, UniProt P25779); assay: Trypanosoma cruzi cruzipain peptidase activity assay (Ki); details: read-out: Ki, inhibitors of cruzain and cruzipains
In short: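 Native cruzipain from T. cruzi Dm28 epimastigotes, 2.5 nM, in 100 mM sodium phosphate pH 6.75 with 1 mM EDTA and 10 mM L-cysteine, 25 °C, DMSO <1%. Rates taken from continuous fluorogenic substrate read; Ki by regression assuming reversible pure-competitive inhibition.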

CPB2.8ΔCTE = target: T1, CPB2.8ΔCTE (Leishmania mexicana, UniProt P36400); assay: Leishmania mexicana cysteine protease B (CPB) peptidase activity assay (Ki); details: Ki, inhibitors of Leismania mexicana CPB protease
T1 construct: Wild-type recombinant CPB without the C-terminal extention (i.e. CPB2.8ΔCTE); Dr. Jeremy Mottram (Wellcome Centre for Molecular Parasitology, University of Glasgow)
T1 sequence (P36400 126-343, stated change not applied): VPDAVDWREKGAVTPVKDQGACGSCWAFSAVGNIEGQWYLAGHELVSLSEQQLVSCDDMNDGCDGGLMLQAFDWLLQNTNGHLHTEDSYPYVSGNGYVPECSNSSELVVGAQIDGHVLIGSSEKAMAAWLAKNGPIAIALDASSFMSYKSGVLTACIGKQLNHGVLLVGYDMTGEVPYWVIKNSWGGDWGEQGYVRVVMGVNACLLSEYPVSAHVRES
In short: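 Apparent Ki was derived by regression of activity against inhibitor concentration, assuming pure-competitive reversible binding. Reaction: 0.25 nM CPB lacking the C-terminal extension, pH 5.5 acetate buffer (1 mM EDTA, 200 mM NaCl, 10 mM DTT), 25 °C, followed by continuous substrate fluorescence.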

human cathepsin B = target: T2, human cathepsin B (Homo sapiens, UniProt P07858); assay: Cathepsin B peptidase activity assay (Ki)
T2 construct: purchased CN Biosciences
Procedure: Unless otherwise stated, all general chemicals and biochemicals were purchased from either the Sigma Chemical Company, Poole, Dorset, U.K or from Fisher Scientific UK, Loughborough, Leicestershire, U.K. Absorbance assays were carried out in flat-bottomed 96-well plates (Spectra; Greiner Bio-One Ltd., Stonehouse, Gloucestershire, U.K.) using a SpectraMax PLUS384 plate reader (Molecular Devices, Crawley, U.K.). […] Fluorescence assays were monitored using a SpectraMax Gemini fluorescence plate reader (Molecular Devices). For substrates employing either a 7-amino-4-methylcoumarin (AMC) or a 7-amino-4-trifluoromethylcoumarin (AFC) fluorophore, assays were monitored at an excitation wavelength of 365 nm and an emission wavelength of 450 nm and the fluorescence plate reader calibrated with AMC. For substrates employing a 3-amino-benzoyl (Abz) fluorophore, assays were monitored at an excitation wavelength of 310 nm and an emission wavelength of 445 nm; the fluorescence plate reader calibrated with 3-amino-benzamide (Fluka). Unless otherwise indicated, all the peptidase substrates were purchased from Bachem UK, St Helens, Merseyside, UK. […] Hydroxyethylpiperazine ethanesulfonate (HEPES), tris-hydroxylmethyl aminomethane (tris) base, bis-tris-propane and all the biological detergents (e.g. CHAPS, zwittergents, etc.) were purchased from CN Biosciences UK, Beeston, Nottinghamshire, U.K. Glycerol was purchased from Amersham Pharmacia Biotech, Little Chalfont, Buckinghamshire, U.K. Stock solutions of substrate or inhibitor were made up to 10 mM in 100% dimethylsulfoxide (DMSO) (Rathburns, Glasgow, U.K.) and diluted as appropriately required. In all cases the DMSO concentration in the assays was maintained at less than 1% (vol./vol.).
Enzyme was added as required to initiate the reaction and the activity, as judged by the change in fluorescence upon conversion of substrate to product, was monitored over time. All assays were carried out at 25±1° C.
Bovine cathepsin S, human cathepsin L, human cathepsin H and human cathepsin B were obtained from CN Biosciences. Recombinant human cathepsin S, human cathepsin K and human cathepsin X were obtained from Dr. Boris Turk (Josef Stefan Institute, Ljubljana, Slovenia). Unless otherwise stated, all peptidase activity assays were carried out in 10 mM bis-tris-propane (BTP), pH 6.5 containing 1 mM EDTA, 5 mM 2-mercaptoethanol and 1 mM CaCl2.
The apparent inhibition constant (Ki) for each compound was determined on the basis that inhibition was reversible and occurred by a pure-competitive mechanism. […] [formula]
[formula] Ki^app=Ki(1+[So]/KM^app) (4)
Curves were fitted by non-linear regression analysis (Prism) using a fixed value for the enzyme concentration.

[1] = read-out: Ki, inhibitors of cathepsin B

Measured: Ki

Sequence of Wild-type cruzipain (P25779 whole entry): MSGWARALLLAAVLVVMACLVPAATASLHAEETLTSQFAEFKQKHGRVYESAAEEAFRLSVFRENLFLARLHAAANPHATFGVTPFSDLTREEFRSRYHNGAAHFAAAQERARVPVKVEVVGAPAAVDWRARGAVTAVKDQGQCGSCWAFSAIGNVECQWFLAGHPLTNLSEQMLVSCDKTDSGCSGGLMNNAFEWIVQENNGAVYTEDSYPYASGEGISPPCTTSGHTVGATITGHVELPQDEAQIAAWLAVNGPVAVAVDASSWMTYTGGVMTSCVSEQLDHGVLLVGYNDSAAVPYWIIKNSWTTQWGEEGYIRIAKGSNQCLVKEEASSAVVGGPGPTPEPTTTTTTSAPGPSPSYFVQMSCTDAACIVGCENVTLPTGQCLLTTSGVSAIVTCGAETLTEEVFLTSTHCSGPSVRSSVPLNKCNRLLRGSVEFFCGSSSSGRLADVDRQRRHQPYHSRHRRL

CC(C)C[C@H](NC(=O)c1ccc(N(C)C)cc1)C(=O)N1CC[C@@H]2[C@H]1C(=O)CN2C(=O)C12CC3CC(CC(C3)C1)C2 [Example 48, (3aR,6aS)-N-{(1S)-1-[4-(Adamantane-1-carbonyl)-6-oxo-hexahydro-pyrrolo[3,2-b]pyrrole-1-carbonyl]-3-methyl-butyl}-4-dimethylamino-benzamide]
< 5 µM: Wild-type cruzipain | CPB2.8ΔCTE | human cathepsin B; [1]

CCN(CC)c1ccc(C(=O)N[C@@H](CC(C)C)C(=O)N2CC[C@@H]3[C@H]2C(=O)CN3C(=O)c2cccc(S(C)(=O)=O)c2)cc1 [Example 60, (3aR,6aS)-4-Diethylamino-N-{(1S)-1-[4-(3-methanesulfonyl-benzoyl)-6-oxo-hexahydro-pyrrolo[3,2-b]pyrrole-1-carbonyl]-3-methyl-butyl}-benzamide]
< 5 µM: Wild-type cruzipain | CPB2.8ΔCTE | human cathepsin B; [1]

CC(C)C[C@H](NC(=O)c1ccc(N(C)C)cc1)C(=O)N1CC[C@@H]2[C@H]1C(=O)CN2C(=O)c1ccc(Cl)cc1 [Example 74, (3aR,6aS)-N-{(1S)-1-[4-(4-Chloro-benzoyl)-6-oxo-hexahydro-pyrrolo[3,2-b]pyrrole-1-carbonyl]-3-methyl-butyl}-4-dimethylamino-benzamide]
< 5 µM: Wild-type cruzipain | CPB2.8ΔCTE | human cathepsin B; [1]

CC(C)C[C@H](NC(=O)c1ccc(N(C)C)cc1)C(=O)N1CC[C@@H]2[C@H]1C(=O)CN2C(=O)c1ccc2c(c1)OCO2 [Example 77, (3aR,6aS)-N-{(1S)-1-[4-(Benzo[1,3]dioxole-5-carbonyl)-6-oxo-hexahydro-pyrrolo[3,2-b]pyrrole-1-carbonyl]-3-methyl-butyl}-4-dimethylamino-benzamide]
< 5 µM: Wild-type cruzipain | CPB2.8ΔCTE | human cathepsin B; [1]

CC(C)C[C@H](NC(=O)c1ccc(N(C)C)cc1)C(=O)N1CC[C@@H]2[C@H]1C(=O)CN2C(=O)c1ccc2cc[nH]c2c1 [Example 99, (3aR,6aS)-4-Dimethylamino-N-{(1S)-1-[4-(1H-indole-6-carbonyl)-6-oxo-hexahydro-pyrrolo[3,2-b]pyrrole-1-carbonyl]-3-methyl-butyl}-benzamide]
< 5 µM: Wild-type cruzipain | CPB2.8ΔCTE | human cathepsin B; [1]

CC(C)C[C@H](NC(=O)c1ccc(N(C)C)cc1)C(=O)N1CC[C@@H]2[C@H]1C(=O)CN2C(=O)c1ccc2nonc2c1 [Example 102, (3aR,6aS)-N-{(1S)-1-[4-(Benzo[1,2,5]oxadiazole-5-carbonyl)-6-oxo-hexahydro-pyrrolo[3,2-b]pyrrole-1-carbonyl]-3-methyl-butyl}-4-dimethylamino-benzamide]
< 5 µM: Wild-type cruzipain | CPB2.8ΔCTE | human cathepsin B; [1]

CC(C)C[C@H](NC(=O)c1ccc(N(C)C)cc1)C(=O)N1CC[C@@H]2[C@H]1C(=O)CN2C(=O)C1CCCCCC1 [Example 135, (3aR,6aS)-N-[(1S)-1-(4-Cycloheptanecarbonyl-6-oxo-hexahydro-pyrrolo[3,2-b]pyrrole-1-carbonyl)-3-methyl-butyl]-4-dimethylamino-benzamide]
< 5 µM: Wild-type cruzipain | CPB2.8ΔCTE | human cathepsin B

CCC(C)CC(=O)N1CC(=O)[C@@H]2[C@H]1CCN2C(=O)[C@H](CC(C)C)NC(=O)c1ccc(N(C)C)cc1 (stereo partly drawn) [Example 141, (3aR,6aS)-4-Dimethylamino-N-{(1S)-3-methyl-1-[4-(3-methyl-pentanoyl)-6-oxo-hexahydro-pyrrolo[3,2-b]pyrrole-1-carbonyl]-butyl}-benzamide]
< 5 µM: Wild-type cruzipain | CPB2.8ΔCTE | human cathepsin B; [1]

Reference: patent publication US20060100431A1, “Biologically active compounds” (Amura Therapeutics Limited, priority 2002, published 2006)
